Test: DPPH radical scavenging antioxidant test
Format: biochemical
Details: for A (absorbance read against a blank at 517 nm) / Inhibition (radical scavenging inhibition): 0.2 mL DPPH (0.75 mM), compound 3 μM in ethanol, 30 min incubation in the dark
Protocol: The antioxidant properties of the 8-(4-bromobenzylideneamino)naphthalene-1,3-disulfonic acid were studied by adding 0.2 mL DPPH (0.75 mM)) to compound 8-(4-bromobenzylideneamino)naphthalene-1,3-disulfonic acid (III) (3 μM) in ethanol. After 30 min of incubation in the dark, the absorbance was read against a blank at 517 nm. Ascorbic acid (vitamin C) was used as standard antioxidants (positive control). A blank sample was prepared by 0.2 ml of DPPH in 3 ml ethanol. A negative control sample was run using ethanol instead of the sample. The radical scavenging inhibition was calculated using the following equation: […]

SMILES | A (absorbance read against a blank at 517 nm) | Inhibition (radical scavenging inhibition) (517 nm) [%] | antioxidant potential compared to vitamin C (in words) (DPPH in vitro test, vitamin C as positive control, 517 nm)
O=C1O[C@H]([C@@H](O)CO)C(O)=C1O [vit c, Ascorbic acid, reference compound] | 0.12 | 74 | 
O=S(=O)(O)c1cc(S(=O)(=O)O)c2c(/N=C/c3ccc(Br)cc3)cccc2c1 [Product III, 8-(4-bromobenzylideneamino)naphthalene-1,3-disulfonic acid] | 0.21 | 50 | high potential as an antioxidant compared to vitamin C

Source: patent publication US11987543B1, “8-(4-bromobenzylideneamino)naphthalene-1,3-disulfonic acid as an antioxidant compound” (KING FAISAL UNIVERSITY, priority 2023, dated 2024)
